Experimental data taken from publication PMC4904262 (ACS Medicinal Chemistry Letters, 2016).
Like-named read-outs stand apart in the source and are kept apart here.

Assays:
WNT signaling [1] = settings: read-out: 7dF3 IC50; Figure 1; cited from earlier work
CDK19 = settings: read-out: CDK19 IC50; Figure 1; cited from earlier work
in vitro [2] = settings: human, Caco-2
in vitro [3] = settings: human, microsomes
[4] = mouse
aldehyde oxidase [5] = biological target: T1, aldehyde oxidase (Homo sapiens, UniProt Q06278); settings: for % of parent compd remaining after 45 min: human, cytosol, 0.75 h, 1 µM
in vitro [6] = settings: rat, microsomes
aldehyde oxidase [7] = biological target: T1, aldehyde oxidase; test: in vitro; settings: cytosol
in vitro [8] = settings: mouse, microsomes
[9] = human
WNT signaling [10] = settings: for fold less active in the cell-based assay: relative to 4; for drop off in the cell-based assay: cell-based versus CDK8 affinity
WNT signaling [11] = test: cells; settings: 7dF3, read-out: 7dF3 IC50
Caco-2 = settings: human
CDK8 = CDK8 (Homo sapiens, UniProt P49336); assay type: binding; settings: versus parent analogue
CDK8, sequence (P49336 whole entry): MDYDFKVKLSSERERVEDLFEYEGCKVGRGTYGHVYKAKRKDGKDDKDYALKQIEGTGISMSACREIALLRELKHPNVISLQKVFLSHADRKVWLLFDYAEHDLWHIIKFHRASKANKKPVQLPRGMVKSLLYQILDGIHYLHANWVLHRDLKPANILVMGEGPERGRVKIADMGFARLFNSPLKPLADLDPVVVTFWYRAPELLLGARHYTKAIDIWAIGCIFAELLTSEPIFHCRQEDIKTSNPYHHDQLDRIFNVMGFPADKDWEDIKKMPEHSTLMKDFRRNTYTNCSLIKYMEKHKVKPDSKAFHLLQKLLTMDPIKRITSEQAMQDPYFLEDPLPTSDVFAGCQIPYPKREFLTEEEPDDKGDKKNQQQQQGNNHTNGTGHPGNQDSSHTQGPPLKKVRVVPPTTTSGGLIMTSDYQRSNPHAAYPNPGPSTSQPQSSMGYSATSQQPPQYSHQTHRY
CDK8, sequence (P24863 whole entry, further chain): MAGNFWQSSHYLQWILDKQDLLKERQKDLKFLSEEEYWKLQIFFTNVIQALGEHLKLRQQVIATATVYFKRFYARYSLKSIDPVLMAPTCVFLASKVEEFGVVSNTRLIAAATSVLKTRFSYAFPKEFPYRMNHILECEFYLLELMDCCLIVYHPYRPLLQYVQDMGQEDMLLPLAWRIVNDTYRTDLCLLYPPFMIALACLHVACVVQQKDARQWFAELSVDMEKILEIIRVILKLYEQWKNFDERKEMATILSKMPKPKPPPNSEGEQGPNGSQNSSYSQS

T1 sequence (Q06278 whole entry): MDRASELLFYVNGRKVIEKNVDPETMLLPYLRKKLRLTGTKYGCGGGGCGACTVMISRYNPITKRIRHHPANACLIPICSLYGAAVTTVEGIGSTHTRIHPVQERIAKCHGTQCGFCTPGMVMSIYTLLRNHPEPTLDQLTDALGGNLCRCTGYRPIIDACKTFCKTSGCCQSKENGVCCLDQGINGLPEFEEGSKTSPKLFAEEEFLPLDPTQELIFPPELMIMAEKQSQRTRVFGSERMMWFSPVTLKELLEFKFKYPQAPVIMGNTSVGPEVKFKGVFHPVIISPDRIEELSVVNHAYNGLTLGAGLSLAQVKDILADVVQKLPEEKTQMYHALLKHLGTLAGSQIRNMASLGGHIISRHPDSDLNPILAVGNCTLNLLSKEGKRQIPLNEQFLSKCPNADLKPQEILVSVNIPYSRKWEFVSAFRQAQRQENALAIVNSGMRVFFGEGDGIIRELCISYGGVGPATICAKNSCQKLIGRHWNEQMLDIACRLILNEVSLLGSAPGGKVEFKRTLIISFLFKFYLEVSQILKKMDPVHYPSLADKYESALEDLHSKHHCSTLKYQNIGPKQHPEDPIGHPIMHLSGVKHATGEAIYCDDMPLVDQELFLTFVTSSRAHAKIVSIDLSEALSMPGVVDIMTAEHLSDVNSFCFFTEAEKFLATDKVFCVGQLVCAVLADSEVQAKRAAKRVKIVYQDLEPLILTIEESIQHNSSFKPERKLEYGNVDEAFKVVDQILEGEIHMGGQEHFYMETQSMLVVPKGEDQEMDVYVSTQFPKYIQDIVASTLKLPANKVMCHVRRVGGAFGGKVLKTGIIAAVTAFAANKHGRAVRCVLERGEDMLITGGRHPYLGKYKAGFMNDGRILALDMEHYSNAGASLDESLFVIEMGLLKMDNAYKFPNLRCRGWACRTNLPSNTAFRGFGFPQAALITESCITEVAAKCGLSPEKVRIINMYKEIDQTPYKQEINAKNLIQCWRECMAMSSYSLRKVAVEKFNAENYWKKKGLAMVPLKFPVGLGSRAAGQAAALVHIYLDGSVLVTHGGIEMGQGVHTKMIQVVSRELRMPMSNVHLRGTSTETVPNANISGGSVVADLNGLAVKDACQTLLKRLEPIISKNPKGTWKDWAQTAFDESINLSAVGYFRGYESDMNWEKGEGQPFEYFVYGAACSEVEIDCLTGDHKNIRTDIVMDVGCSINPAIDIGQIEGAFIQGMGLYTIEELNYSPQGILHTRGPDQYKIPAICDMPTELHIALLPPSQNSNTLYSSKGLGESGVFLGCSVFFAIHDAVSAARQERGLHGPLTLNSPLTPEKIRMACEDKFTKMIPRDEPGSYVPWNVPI

Compound	microsomal CLint at 1 µM (in vitro [3]) [µL/min/mg]	microsomal CLint at 1 µM (in vitro [6]) [µL/min/mg]	microsomal CLint at 1 µM (in vitro [8]) [µL/min/mg]	% of parent compd remaining after 45 min (aldehyde oxidase [5]) [%]	IC50 (WNT signaling [11]) [nM]	further results
Cn1cc(-c2ccc(-c3cncc(Cl)c3N3CCC4(CCNC4=O)CC3)cc2)cn1 [Compound 1]	–	–	–	–	–	IC50 (WNT signaling [1]): 5 ± 1 nM; IC50 (CDK19): 6 ± 1 nM
Cn1ncc2cc(-c3cnc(N)c(Cl)c3N3CCC4(CCNC4=O)CC3)ccc21 [Compound 2]	–	–	–	–	–	IC50 (WNT signaling [1]): 11.8 ± 17.9 nM; IC50 (CDK19): 2.6 ± 0.4 nM
CNC(=O)c1ccc2cncc(-c3ccc4c(c3)CS(=O)(=O)N4C)c2n1 [Compound 7]	15	142	76	–	–	Papp A→B (in vitro [2]): 38.3 ×10⁻⁶ cm/s; efflux ratio (in vitro [2]): 1.02; F ([4]; Balb/C, in vivo): 16%; Vss ([4]; Balb/C, in vivo): 2.7 L/kg; in vivo clearance [4]: exceeded liver blood flow; AO substrate (Enzyme assay) (aldehyde oxidase [5]): Yes; CLint scaled at 1 µM (aldehyde oxidase [7]): 598 mL/min/kg
CNC(=O)c1ccc2cncc(-c3ccc4c(c3)CS(=O)(=O)N4)c2n1 [Compound 8]	–	21	23	20	–	Papp A→B (in vitro [2]): 5.94 ×10⁻⁶ cm/s; efflux ratio (in vitro [2]): 7.26; main metabolite [9]: oxidation to give the C5-OH compound 37 as the main metabolite; microsomal CLint (in vitro [3]): < 10 µL/min/mg; in vivo clearance [4]: exceeded liver blood flow; Cl ([4]; in vivo): Not measurable; F ([4]; in vivo): Not measurable; Vd ([4]; in vivo): Not measurable
Cn1cc(-c2ccc(-c3cncc4ccc(C(=O)N5CCNCC5)nc34)cc2)cn1 [Compound 17]	36	525	15	–	–	Vss ([4]; Balb/C, in vivo): 5.8 L/kg; in vivo clearance [4]: exceeded liver blood flow
CC(=O)Nc1ccc2cncc(-c3ccc(-c4cnn(C)c4)cc3)c2n1 [Compound 18]	26	247	168	–	–	fold less active in the cell-based assay (WNT signaling [10]): 10 fold
Cn1cc(-c2ccc(-c3cncc4ccc(N5CCCC5=O)nc34)cc2)cn1 [Compound 19]	143	253	392	–	–	fold less active in the cell-based assay (WNT signaling [10]): 10 fold; CLint scaled at 1 µM (aldehyde oxidase [7]): 418 mL/min/kg
Cn1cc(-c2ccc(-c3cncc4ccc(-c5ncco5)nc34)cc2)cn1 [Compound 25]	48	796	200	0	–	CLint scaled at 1 µM (aldehyde oxidase [7]): 367 mL/min/kg
Cn1cc(-c2ccc(-c3cncc4ccc(-c5nccn5C)nc34)cc2)cn1 [Compound 26]	335	–	661	–	–	AO substrate (Enzyme assay) (aldehyde oxidase [5]): Yes; microsomal CLint (in vitro [6]): > 1000 µL/min/mg; CLint scaled at 1 µM (aldehyde oxidase [7]): > 1000 mL/min/kg
Cn1cc(-c2ccc(-c3cncc4ccc(C(=O)N5CC(F)(F)C5)cc34)cc2)cn1 [Compound 30]	470	207	321	0	–	–
CC(=O)Nc1ccc2cncc(-c3ccc(-c4cnn(C)c4)cc3)c2c1 [Compound 31]	26	90	200	–	–	AO substrate (Enzyme assay) (aldehyde oxidase [5]): Yes
Cn1cc(-c2ccc(-c3cncc4ccc(-c5ncco5)cc34)cc2)cn1 [Compound 32]	81	96	129	3	–	–
Cn1cc(-c2ccc(-c3cncc4ccc(N5CCOC5=O)cc34)cc2)cn1 [Compound 34]	66	102	380	–	–	AO substrate (Enzyme assay) (aldehyde oxidase [5]): Yes
Cn1cc(-c2ccc(-c3cncc4ccc(N5CCCS5(=O)=O)cc34)cc2)cn1 [Compound 35]	54	81	213	–	–	drop off in the cell-based assay (WNT signaling [10]): 7 fold
Cn1cc(-c2ccc(-c3cncc4ccc(S(N)(=O)=O)cc34)cc2)cn1 [Compound 36]	47	220	125	–	–	drop off in the cell-based assay (WNT signaling [10]): 12 fold
CNC(=O)c1ccc2c(N)ncc(-c3ccc4c(c3)CS(=O)(=O)N4)c2n1 [Compound 37]	–	–	–	100	9600 ± 2430	–
COC1CN(C(=O)c2ccc3cncc(-c4ccc(-c5cnn(CC(C)(C)O)c5)cc4)c3n2)C1 [Compound 38]	–	–	–	0	2.8 ± 0.7	–
COC1CN(C(=O)c2ccc3cncc(-c4ccc5c(cnn5CC(C)(C)O)c4)c3n2)C1 [Compound 39]	–	–	–	0	225 ± 76	–
COC1CN(C(=O)c2ccc3cncc(-c4ccc5nn(CC(C)(C)O)cc5c4)c3n2)C1 [Compound 40]	–	–	–	0	17.9 ± 5.5	–
COC1CN(C(=O)c2ccc3cncc(-c4ccc(-c5cnn(CC(C)(C)O)c5)cc4)c3c2)C1 [Compound 41]	–	–	–	0	13.2 ± 15.2	–
CC(C)(O)Cn1cc(-c2ccc(-c3cncc4ccc(C(N)=O)cc34)cc2)cn1 [Compound 42]	–	–	–	7	0.6 ± 0.2	–
COC1CN(C(=O)c2ccc3cncc(-c4ccc5c(cnn5CC(C)(C)O)c4)c3c2)C1 [Compound 43]	–	–	–	2	921 ± 148	–
COC1CN(C(=O)c2ccc3cncc(-c4ccc5nn(CC(C)(C)O)cc5c4)c3c2)C1 [Compound 44]	–	–	–	0	92.7 ± 41.1	–
CNC(=O)c1ccc2c(OC)ncc(-c3ccc4c(c3)CS(=O)(=O)N4)c2n1 [Compound 45]	–	–	–	–	> 30000	–
CNC(=O)c1ccc2c(N)ncc(-c3ccc4c(c3)CS(=O)(=O)N4C)c2n1 [Compound 48]	–	–	–	–	9.3 ± 2.3	microsomal CLint (in vitro [3]): 18 µL/min/mg; Cl ([4]; Balb/C, in vivo): 213 mL/min/kg; F ([4]; Balb/C, in vivo): 29%; Vss ([4]; Balb/C, in vivo): 5.64 L/kg; AO substrate (Enzyme assay) (aldehyde oxidase [5]): No; microsomal CLint (in vitro [6]): 24 µL/min/mg; CLint scaled at 1 µM (aldehyde oxidase [7]): 15 mL/min/kg; microsomal CLint (in vitro [8]): 94 µL/min/mg
Cn1cc(-c2ccc(-c3cnc(N)c4ccc(C(=O)N5CCNCC5)nc34)cc2)cn1 [Compound 49]	–	–	36	–	–	microsomal CLint (in vitro [3]): < 10 µL/min/mg; Caco-2 ER (Caco-2): 145; Caco-2 PappA-B (Caco-2): 0.96 × 10^–6 cm/s; Cl ([4]; Balb/C, in vivo): 58.5 mL/min/kg; F ([4]; Balb/C, in vivo): <5%; Vss ([4]; Balb/C, in vivo): 2.49 L/kg; microsomal CLint (in vitro [6]): < 10 µL/min/mg; CLint scaled at 1 µM (aldehyde oxidase [7]): < 4.2 mL/min/kg
Cn1cc(-c2ccc(-c3cnc(N)c4ccc(-c5nccn5C)nc34)cc2)cn1 [Compound 57]	–	–	–	–	–	drop in CDK8 affinity (CDK8): 225 fold
Cn1cc(-c2ccc(-c3cnc(N)c4ccc(C(=O)NC5CC5)cc34)cc2)cn1 [Compound 64]	16	22	39	–	–	Caco-2 ER (Caco-2): 13.2; Caco-2 PappA-B (Caco-2): 32.5 × 10^–6 cm/s; AO substrate (Enzyme assay) (aldehyde oxidase [5]): No
Cn1cc(-c2ccc(-c3cnc(N)c4ccc(N5CCOC5=O)cc34)cc2)cn1 [Compound 65]	14	19	66	–	–	Caco-2 ER (Caco-2): 16.2; Caco-2 PappA-B (Caco-2): 20.6 × 10^–6 cm/s; AO substrate (Enzyme assay) (aldehyde oxidase [5]): No
